Here are results for 99 compounds from ChEMBL document CHEMBL3988442, “University of Dundee, Small-Polar-MMV Screening Library” (2021).

Each structure is given as a SMILES string. Values joined by “and” are separate entries in the source; they are usually repeats but may differ in a detail not shown here. Equal entries are not always repeated. Bounds are passed on as bounds.

The target in the experiment is T1, Coenzyme A biosynthesis bifunctional protein CoaBC (Mycobacterium tuberculosis (strain ATCC 25618 / H37Rv), UniProt P9WNZ1).
T1 sequence (P9WNZ1 whole entry): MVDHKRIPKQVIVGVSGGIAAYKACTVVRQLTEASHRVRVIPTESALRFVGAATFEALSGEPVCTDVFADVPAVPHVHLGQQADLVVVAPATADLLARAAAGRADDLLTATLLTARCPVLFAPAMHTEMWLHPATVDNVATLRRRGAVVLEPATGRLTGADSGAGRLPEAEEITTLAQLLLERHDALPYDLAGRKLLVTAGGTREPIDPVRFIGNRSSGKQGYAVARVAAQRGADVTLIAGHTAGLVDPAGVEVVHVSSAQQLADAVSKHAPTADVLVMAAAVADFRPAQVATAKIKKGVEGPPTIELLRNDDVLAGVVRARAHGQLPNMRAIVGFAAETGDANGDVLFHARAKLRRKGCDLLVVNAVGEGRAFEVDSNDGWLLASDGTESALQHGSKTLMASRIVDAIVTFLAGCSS
The experiment can be described thus: Biomol Green assay for MtCoaBC inhibitor, OD650 read. Type of experiment: functional.
With `O=C1COC[C@H]([C@H](O)c2ccc(NC(=O)c3cccnc3)cc2)N1`, the half-inhibitory concentration (IC50) was more than 30.2 µM.

Consider `COc1c(C)cc(CNCc2ccnc(N3CCOCC3)c2)cc1C`, for which the IC50 is more than 30.2 µM.

In turn, `NS(=O)(=O)c1cc(C(=O)N2CCCCC2)cs1` had an IC50 of more than 30.2 µM.

Turning to `CN1CCN([C@H]2CCN(C(=O)c3cc(Cl)cn3C)C[C@H]2CCCO)CC1`, the IC50 is more than 30.2 µM.

`CC(c1nc(-c2ccccc2)no1)N1CCc2c(ncn2C2CC2)C1` (centres undefined) had an IC50 of more than 30.2 µM.

Turning to `Cc1ccc(-n2c(O)cc(C)c(C#N)c2=O)c(C)c1`, the IC50 was more than 30.2 µM.

`CC(Cc1ccco1)NC(=O)CCn1cccn1` (centres undefined) had an IC50 of more than 30.2 µM.

Regarding `NC(=O)CN1CCC(NC(=O)COCCOc2ccccc2)CC1`, the IC50 was more than 30.2 µM.

`O=C(CCC1CCN(C2CCSCC2)CC1)NCC1CCCO1` (centres undefined): the IC50 was more than 30.2 µM.

The compound `COc1ccccc1OCC(=O)NS(=O)(=O)c1cccnc1` had an IC50 of more than 30.2 µM.

`CC(C)CN1C[C@@H]2OCC(=O)N(c3ccccc3)[C@@H]2C1` showed a half-inhibitory concentration (IC50) of more than 30.2 µM.

The compound `CC(C)(CNC(=O)C1(c2ccccc2)CCOCC1)C(=O)O` showed an IC50 of more than 30.2 µM.

On to `NC(=O)CC1CCN(S(=O)(=O)c2cnn(-c3ccccc3)c2)CC1`, for which the IC50 was more than 30.2 µM.

Compound `CC(C)CCn1c(=O)n(CCn2cccc2)c2cc(C(=O)O)cnc21` had an IC50 of more than 30.2 µM.

`Cc1ncnc2c1CCN(C(=O)c1ccoc1)CC2` gave an IC50 of more than 30.2 µM.

As for `COc1ccccc1C1CC(=O)Nc2c1c(=O)[nH]n2C1CCCC1` (centres undefined), the IC50 was more than 30.2 µM.

Compound `O=C(CN1CCN(C(=O)c2ccccc2)CC1)Nc1ncc(Br)cc1Br` gave an IC50 of more than 30.2 µM.

Turning to `CCc1ncc2c(n1)CN(Cc1nc(-c3cccs3)no1)CC2`, the IC50 is more than 30.2 µM.

In the case of `COC(=O)C(C)CN(C)S(=O)(=O)c1c(Br)cc2[nH]c(=O)oc2c1Cl` (centres undefined), the IC50 is more than 30.2 µM.

As for `CC(=O)N1CC(c2ccnc(Nc3nccs3)n2)C1`, the IC50 is more than 30.2 µM.

Compound `Cn1cc(CN2CCCC3(CCN(Cc4ccncc4)C3=O)C2)cn1` (centres undefined) showed an IC50 of more than 30.2 µM.

For the compound `Cc1sc(NC(=O)CN(C)CCOc2cccc(F)c2)c(C)c1C`, the half-inhibitory concentration (IC50) is more than 30.2 µM.

In turn, `COc1ccc(NC2(C(=O)N3CCCn4cncc4C3)CCCC2)cc1` gave an IC50 of more than 30.2 µM.

On to `CC(C)NC(=O)[C@@H]1C[C@H](N)CN1C(=O)C1(c2ccc(Cl)cc2)CCC1`, for which the IC50 was more than 30.2 µM.

Turning to `O=C([C@H]1C[C@@H]2CCN(c3cccc(F)c3)C[C@H]2O1)N1CCCC1`, the IC50 is more than 30.2 µM.

With `CN(C)C(C(=O)NCc1cc(C(C)(C)C)n[nH]1)c1ccc(F)cc1` (centres undefined), the IC50 was more than 30.2 µM.

The compound `Cc1ccnc(N2C[C@@H]3CC[C@H](C2)N(CC2CCC2)C3=O)n1` showed an IC50 of more than 30.2 µM.

With `CCC[C@@H]1CN(Cc2c[nH]nc2-c2ccc(OC)cc2)C[C@H]1NC(C)=O`, the IC50 was more than 30.2 µM.

On to `Cn1ncnc1NS(=O)(=O)c1ccc(F)cc1Cl`, for which the IC50 was more than 30.2 µM.

`CCC(CO)Nc1nc(C(F)F)nc2ccccc12` (centres undefined) gave an IC50 of more than 30.2 µM.

On to `CCS(=O)(=O)c1ccc2oc([C@H]3CCN(Cc4ccccn4)C3)nc2c1`, for which the IC50 was more than 30.2 µM.

As to `O=C1O[C@@H]2CN(c3cnccn3)C[C@@H]2N1CCCc1ccc(F)cc1`, the IC50 was more than 30.2 µM.

Regarding `CCOCC1CN(C(=O)C2=CCCC2)Cc2cnn(C)c21` (centres undefined), the IC50 was more than 30.2 µM.

Regarding `CC(C)c1noc(CN2CCN(C(=O)c3cc(Cl)ccc3F)CC2)n1`, the 50% inhibitory concentration (IC50) was more than 30.2 µM.

For `CC[C@@H](Cn1ncc2ccccc2c1=O)NC(=O)c1ccco1`, the IC50 is more than 30.2 µM.

In turn, `c1cncc(CN2CCc3ncnc(C4CCOC4)c3CC2)c1` (centres undefined) had an IC50 of more than 30.2 µM.

For `Cc1ccc(CNCCN2CCOCC2)o1`, the IC50 was more than 30.2 µM.

Regarding `CC1CCN(c2nc(O)cc(C3CC(=O)N(C4CCCCC4)C3)n2)CC1` (centres undefined), the IC50 is more than 30.2 µM.

In the case of `Cc1noc([C@@H]2C[C@H](NS(=O)(=O)Cc3ccccc3)CN2C)n1`, the IC50 is more than 30.2 µM.

`NC(=O)N1CCC2(CC1)CN(c1ccsc1)C(=O)CO2` gave an IC50 of more than 30.2 µM.

`CCN(CC)C1CCN(C(=O)NCc2cccc(-n3cccn3)c2)C1` (centres undefined) had an IC50 of more than 30.2 µM.

With `CCc1nccn1CC1CCCN1S(=O)(=O)Cc1ccccc1` (centres undefined), the IC50 is more than 30.2 µM.

In the case of `CC(C)C1CN(C(=O)c2cn3cc(Cl)cnc3n2)CCCN1CC1CC1` (centres undefined), the IC50 was more than 30.2 µM.

Turning to `CCCNC(=O)NC(C)c1ccccn1` (centres undefined), the IC50 was more than 30.2 µM.

On to `Cc1ccc(-c2cc(C(=O)NCCCc3csc(N)n3)[nH]n2)o1`, for which the IC50 is more than 30.2 µM.

For `CC(C)NS(=O)(=O)c1cc(C(=O)O)cc(-n2cc3c(n2)CCC3)c1`, the IC50 was more than 50.1 µM.

With `c1ccc(-c2nc(CN3CCCC3Cn3cncn3)co2)cc1` (centres undefined), the IC50 was more than 30.2 µM.

`Cc1cccc(CN(C(=O)CCn2cncn2)C(C)C)c1` gave an IC50 of more than 30.2 µM.

As for `Cc1nonc1C1CCCN1Cc1ccc(C(=O)Nc2nccs2)cc1` (centres undefined), the IC50 is more than 30.2 µM.

In turn, `O=C(CCNc1ncccn1)Nc1ccc(Cn2cncn2)cc1` showed an IC50 of more than 30.2 µM.

Take `Cc1cccc(CN2C[C@@H](F)[C@@H](OCc3nc4ccccc4[nH]3)C2)n1`: the IC50 was more than 30.2 µM.

`CCOc1ccc(C(=O)CC(SC2CCCCC2)C(=O)O)cc1` (centres undefined) had an IC50 of more than 50.1 µM.

With `Cc1nnc(CN(C)S(=O)(=O)c2ccc(Br)cc2Cl)n1C`, the IC50 is more than 30.2 µM.

With `COc1ccccc1CC(C)CC(=O)NC(C)C` (centres undefined), the IC50 is more than 30.2 µM.

In turn, `CC(C)C(=O)N1CCCC(Cc2cccnc2)C1` (centres undefined) gave an IC50 of more than 30.2 µM.

The compound `CC(NC(=O)Nc1cccnc1N1CCCC1)c1ccn(C)c1` (centres undefined) gave an IC50 of more than 30.2 µM.

The compound `CC(NC(=O)CNC(=O)OC(C)(C)C)c1ccc(Cl)s1` (centres undefined) showed an IC50 of more than 30.2 µM.

Take `COC(=O)c1cccc2nc([C@H]3CCN(Cc4ccccc4)C3)oc12`: the IC50 is more than 30.2 µM.

As for `Cc1cc(NC(=O)CN2CCN(c3nccs3)C(C)C2)no1` (centres undefined), the IC50 was more than 30.2 µM.

Turning to `OCCN(Cc1ccncc1)CC1(c2ccc(Cl)cc2)CCCC1`, the IC50 is more than 30.2 µM.

The compound `CC(C)c1ncc2c(n1)CN(Cc1nc(-c3ccccn3)no1)CC2` gave an IC50 of more than 30.2 µM.

`NC(=O)c1cc2c(nc1Oc1cccc(CN3CCCC3)c1F)CCC2` showed an IC50 of more than 30.2 µM.

In turn, `Cc1cccc(NC2CCN(C(=O)Nc3ccccn3)CC2)n1` had an IC50 of more than 30.2 µM.

With `O=C(CN1CC(n2cccn2)C1)NCCC1=CCCCC1`, the IC50 is more than 30.2 µM.

For `Cc1nc(O)cc(C2(C)CCCNC2)n1` (centres undefined), the 50% inhibitory concentration (IC50) was more than 30.2 µM.

For `COCCNC(=O)c1nc2c(s1)CCCN2c1ccc(C)nn1`, the IC50 was more than 30.2 µM.

As to `COCCC(=O)N1CC2(CCN(Cc3ccoc3)C2)C1`, the IC50 is more than 30.2 µM.

For `Cc1cc(N2CCC(c3ncc[nH]3)CC2)nc(N)n1`, the half-inhibitory concentration (IC50) was more than 30.2 µM.

For `Clc1cccc(Cl)c1CN(CCCN1CCOCC1)Cc1cccnc1`, the IC50 is more than 30.2 µM.

`Cc1cccc(NC2CCN(C(=O)Nc3cn[nH]c3)CC2)n1` gave an IC50 of more than 30.2 µM.

`CC(NCc1ccccc1Cl)c1ccc2[nH]c(=O)[nH]c2c1` (centres undefined) had an IC50 of more than 30.2 µM.

`Cc1cnn(CC2CCCN2C(=O)c2cccc(S(C)(=O)=O)c2)c1` (centres undefined) had an IC50 of more than 30.2 µM.

The compound `CC(CS(C)(=O)=O)N(C(=O)CCc1cccc(F)c1)C1CC1` (centres undefined) showed an IC50 of more than 30.2 µM.

In turn, `CCc1nc(NCCc2c(C)nn(CC)c2C)c2cnn(C)c2n1` showed an IC50 of more than 30.2 µM.

As for `CCSCc1csc(-c2ccc(S(C)(=O)=O)cc2)n1`, the IC50 was more than 30.2 µM.

The compound `O=C(NC1CCCC1)[C@@H]1CN(Cc2nccs2)C[C@H]2OCC[C@H]21` had an IC50 of more than 30.2 µM.

For the compound `CCc1cc(NCCN2CCNC2=O)n2nccc2n1`, the IC50 was more than 30.2 µM.

For `Cc1nonc1OCCNC(=O)COc1ccc(F)cc1F`, the IC50 is more than 30.2 µM.

`Cc1cs/c(=N\C(=O)Cn2nc(N3CCOCC3)ccc2=O)[nH]1` had an IC50 of more than 30.2 µM.

`CCn1ncc2c1NC(=O)CC2c1cnc(-c2ccccn2)nc1` (centres undefined): the IC50 was more than 30.2 µM.

In turn, `Cc1ccc(CNC(=O)COc2ccc3c(c2)OCC3O)cc1` (centres undefined) showed an IC50 of more than 30.2 µM.

The compound `CCC(c1ccc(F)cc1F)N1CCN(CCO)CC1` (centres undefined) gave an IC50 of more than 30.2 µM.

The compound `Cc1cnn(Cc2ccc(NC(=O)N3CCCC3)cc2)c1` gave an IC50 of more than 30.2 µM.

Regarding `COCC1c2nnn(CC3CC3)c2CCN1C(=O)N1CCCC1` (centres undefined), the IC50 is more than 30.2 µM.

In turn, `CC(C(=O)NC1CC1)n1nc(-c2cccs2)cc(N)c1=O` (centres undefined) had an IC50 of more than 30.2 µM.

Take `O=C(O)C1CCN(c2nc3c(-c4ccccc4F)csc3c(=O)[nH]2)CC1`: the IC50 was more than 30.2 µM.

For the compound `COCCN(C)CC(=O)N1CCCC2(CCC(=O)N(CC3CC3)C2)C1` (centres undefined), the IC50 is more than 30.2 µM.

In the case of `CCN1CCOCC2(CCCN(C(=O)c3cnccn3)C2)C1` (centres undefined), the IC50 was more than 30.2 µM.

Take `COc1cccc2cc(CNCc3ccc(N4CCCC4)nc3)oc12`: the IC50 is more than 30.2 µM.

With `CC(C)c1[nH]c2ncccc2c1CN1CCC(O)CC1`, the IC50 is more than 30.2 µM.

The compound `c1cc(-c2nnc([C@H]3CCNC3)o2)ccn1` had an IC50 of more than 30.2 µM.

With `COc1cccc(N2CCN(C(=O)C(C)Oc3ccccc3)CC2=O)c1` (centres undefined), the IC50 is more than 30.2 µM.

The compound `Cc1ncc2c(n1)CCN(CCCc1nc3ccccc3o1)C2` gave an IC50 of more than 50.1 µM.

For `Cc1cc(C2CCCN2CCC(=O)N2CCc3sccc3C2)no1` (centres undefined), the IC50 is more than 30.2 µM.

Turning to `O=C(O)COc1ccc(CN2CCCC(CCc3ccccc3)C2)cc1` (centres undefined), the IC50 was 19.9 µM and 19.6 µM.

`Cc1nc2c(c(=O)[nH]1)CN(Cc1ccc3c(c1)CCCN3C)CC2` showed an IC50 of more than 30.2 µM.

The compound `O=C(NCC1CC1)[C@H]1C[C@@H]2CN(S(=O)(=O)Cc3ccccc3)C[C@H]1O2` gave an IC50 of more than 30.2 µM.

Compound `CC(C)C(NC(=O)NCC1(CO)CC1)c1nnc2n1CCC2` (centres undefined) showed an IC50 of more than 30.2 µM.

`Cc1nn(CC(=O)N2CCN(c3ncccn3)CC2)c(C)c1Cl` had an IC50 of more than 30.2 µM.
